From patent US20250154138A1, “Small Molecule IL-17A Modulators” (BeiGene, Ltd., priority 2022, published 2025) come the findings set out here.

Molecules are shown by their SMILES.

Chain of human IL-17A / human IL-17RA (Q16552 24-155): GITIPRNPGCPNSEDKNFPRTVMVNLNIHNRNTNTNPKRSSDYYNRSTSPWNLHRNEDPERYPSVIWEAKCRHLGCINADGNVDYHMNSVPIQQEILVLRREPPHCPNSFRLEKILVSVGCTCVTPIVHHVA

This experiment concerns the target human IL-17A / human IL-17RA (Homo sapiens (Human), UniProt Q16552). In words: Human IL-17A biochemical assay (HTRF, blocking of IL-17A binding to IL-17RA). The settings on record: 0.4 nM IL-17A, 0.3 nM IL-17RA, max compound concentration 10 uM. The method, then:
Compounds disclosed herein were tested for blocking of human IL-17A (Cat: C774, novoprotein) protein with its receptor human IL-17RA (Cat: C153, novoprotein) in an assay based on Homogeneous Time Resolved Fluorescence. 0.4 nM recombinant human IL-17A protein was pre-incubated with a serial dilution of compounds disclosed herein (maximum concentration is 10 uM, 2.7-fold serially diluted, 10 points) at room temperature for 3 hours in an assay buffer containing 20 mM HEPES, pH 7.5, 50 mM NaCl, 0.1% BSA, 0.2 mM DTT, 0.005% Tween 20. Then 0.3 nM recombinant human IL-17RA was added to plate and further incubated at room temperature for 1 hour. After that Mab Anti-6His Tb cryptate Gold (Cat: 61HI2TLB, Cisbio Bioassays) and MAb Anti Human IgG-XL665 (Cat: 61HFCXLB, Cisbio Bioassays) were added to plate and further incubated at room temperature for 1 hour. The HTRF signals (ex337 nm, em620 nm/665 nm) were read on BMG PHERAstar FSX instrument. The inhibition percentage of human IL-17A interaction with its receptor human IL-17RA in presence of increasing concentrations of compounds was calculated based on the ratio of […]. The IC50 for each compound was derived from fitting the data to the four-parameter logistic equation by Dotmatics.
On to `CNC(=O)C1(N2C[C@@H](C(C)C)NC2=O)Cc2ccc(NC(=O)[C@@H](Nc3nc4ccccc4o3)C3CCCCC3)cc2C1` (stereo partly drawn) [Example 77, 5-((S)-2-(benzo[d]oxazol-2-ylamino)-2-cyclohexylacetamido)-2-((R)-4-isopropyl-2-oxoimidazolidin-1-yl)-N-methyl-2,3-dihydro-1H-indene-2-carboxamide], for which the IC50 was 490 nM.

With `CC[C@H]1CN(C2(C(=O)NC)Cc3cc4nc([C@@H](NC(=O)c5nonc5C)C5CCCCC5)[nH]c4cc3C2)C(=O)N1` [Example 33, N-((1S)-cyclohexyl(6-((S)-4-ethyl-2-oxoimidazolidin-1-yl)-6-(methylcarbamoyl)-1,5,6,7-tetrahydroindeno[5,6-d]imidazol-2-yl)methyl)-4-methyl-1,2,5-oxadiazole-3-carboxamide], the IC50 is 2040 nM.

In turn, `CCOC(=O)N[C@H](C(=O)Nc1ccc2c(c1)CC(C(=O)NC)(N1C[C@@H](C(C)C)NC1=O)C2)C1CCCCC1` (stereo partly drawn) [Example 50, ethyl ((1S)-1-cyclohexyl-2-((2-((R)-4-isopropyl-2-oxoimidazolidin-1-yl)-2-(methylcarbamoyl)-2,3-dihydro-1H-inden-5-yl)amino)-2-oxoethyl)carbamate] yielded an IC50 of 1580 nM.

In turn, `CNC(=O)C1(N2CC(CC(C)C)NC2=O)Cc2ccc(NC(=O)[C@@H](NC(=O)c3ccnn3C)C3CCCCC3)cc2C1` (stereo partly drawn) [Example 24, N-((1S)-1-cyclohexyl-2-((2-(4-isobutyl-2-oxoimidazolidin-1-yl)-2-(methylcarbamoyl)-2,3-dihydro-1H-inden-5-yl)amino)-2-oxoethyl)-1-methyl-1H-pyrazole-5-carboxamide] had an IC50 of 2340 nM.

The compound `CNC(=O)C1(N2CC(Cc3ccc(C#N)cc3)NC2=O)Cc2ccc(NC(=O)[C@@H](NC(=O)c3ccnn3C)C3CCCCC3)cc2C1` (stereo partly drawn) [Example 140, N-((1S)-2-((2-(4-(4-cyanobenzyl)-2-oxoimidazolidin-1-yl)-2-(methylcarbamoyl)-2,3-dihydro-1H-inden-5-yl)amino)-1-cyclohexyl-2-oxoethyl)-1-methyl-1H-pyrazole-5-carboxamide] returned an IC50 of 277 nM.

Compound `Cc1nonc1C(=O)N[C@H](C(=O)Nc1ccc2c(c1)CC(CN1C[C@@H](C(F)(F)F)NC1=O)O2)C(C1CC1)C1CC1` (stereo partly drawn) [Example 293, N-((2S)-1,1-dicyclopropyl-3-oxo-3-((2-(((S)-2-oxo-4-(trifluoromethyl)imidazolidin-1-yl)methyl)-2,3-dihydrobenzofuran-5-yl)amino)propan-2-yl)-4-methyl-1,2,5-oxadiazole-3-carboxamide] registered an IC50 of over 10000 nM.

Consider `Cc1nonc1C(=O)N[C@H](C(=O)Nc1ccc2c(c1)CC(C(=O)Nc1ccc(C(F)(F)F)c(Cl)c1)(N1C[C@@H](C(C)C)NC1=O)C2)C(C1CC1)C1CC1` (stereo partly drawn) [Example 260, N-((2S)-1-((2-((3-chloro-4-(trifluoromethyl)phenyl)carbamoyl)-2-((R)-4-isopropyl-2-oxoimidazolidin-1-yl)-2,3-dihydro-1H-inden-5-yl)amino)-3,3-dicyclopropyl-1-oxopropan-2-yl)-4-methyl-1,2,5-oxadiazole-3-carboxamide], for which the IC50 was over 10000 nM.

As to `CNC(=O)C1(N2C[C@@H](C(C)C)NC2=O)Cc2ccc(NC(=O)[C@@H](NC(=O)C3CC3)C3CCCCC3)cc2C1` (stereo partly drawn) [Example 49, 5-((S)-2-cyclohexyl-2-(cyclopropanecarboxamido)acetamido)-2-((R)-4-isopropyl-2-oxoimidazolidin-1-yl)-N-methyl-2,3-dihydro-1H-indene-2-carboxamide], the IC50 is 1810 nM.

The compound `CNC(=O)C1(N2C[C@@H](C(C)C)NC2=O)Cc2ccc(NC(=O)[C@@H](NC(=O)c3ccn(CCO)n3)C3CCCCC3)cc2C1` (stereo partly drawn) [Example 103, N-((1S)-1-cyclohexyl-2-((2-((R)-4-isopropyl-2-oxoimidazolidin-1-yl)-2-(methylcarbamoyl)-2,3-dihydro-1H-inden-5-yl)amino)-2-oxoethyl)-1-(2-hydroxyethyl)-1H-pyrazole-3-carboxamide] displayed an IC50 of 2700 nM.

`CNC(=O)C1(N2CC(C)NC2=O)Cc2ccc(NC(=O)[C@H](CC3CCCCC3)NC(=O)c3ccnn3C)cc2C1` (stereo partly drawn) [Example 16, N-((2S)-3-cyclohexyl-1-((2-(4-methyl-2-oxoimidazolidin-1-yl)-2-(methylcarbamoyl)-2,3-dihydro-1H-inden-5-yl)amino)-1-oxopropan-2-yl)-1-methyl-1H-pyrazole-5-carboxamide] showed a 50% inhibitory concentration (IC50) of 5000 nM.

Turning to `CNC(=O)C1(N2C[C@@H](C(C)C)NC2=O)Cc2ccc(NC(=O)C(NC(=O)c3ccnn3C)C3CCC(OC)CC3)cc2C1` (stereo partly drawn) [Example 72, N-(2-((2-((R)-4-isopropyl-2-oxoimidazolidin-1-yl)-2-(methylcarbamoyl)-2,3-dihydro-1H-inden-5-yl)amino)-1-(4-methoxycyclohexyl)-2-oxoethyl)-1-methyl-1H-pyrazole-5-carboxamide], the IC50 turned out to be 3630 nM.

Take `CNC(=O)C1(N2C[C@@H](CCc3ccccc3)NC2=O)Cc2ccc(NC(=O)[C@@H](NC(=O)c3ccnn3C)C3CCCCC3)cc2C1` (stereo partly drawn) [Example 96, N-((1S)-1-cyclohexyl-2-((2-(methylcarbamoyl)-2-((R)-2-oxo-4-phenethylimidazolidin-1-yl)-2,3-dihydro-1H-inden-5-yl)amino)-2-oxoethyl)-1-methyl-1H-pyrazole-5-carboxamide]: the IC50 came out at 2320 nM.

Compound `CNC(=O)C1(N2CC(c3ccccc3)NC2=O)Cc2ccc(NC(=O)[C@@H](NC(=O)c3ccnn3C)C3CCCCC3)cc2C1` (stereo partly drawn) [Example 36, N-((1S)-1-cyclohexyl-2-((2-(methylcarbamoyl)-2-(2-oxo-4-phenylimidazolidin-1-yl)-2,3-dihydro-1H-inden-5-yl)amino)-2-oxoethyl)-1-methyl-1H-pyrazole-5-carboxamide] returned an IC50 of 2430 nM.

The compound `Cc1nonc1C(=O)N[C@H](C(=O)Nc1ccc2c(c1)CC(C(=O)Nc1ccc(Cl)cc1Cl)(N1C[C@@H](C(C)C)NC1=O)C2)C(C1CC1)C1CC1` (stereo partly drawn) [Example 264, N-((2S)-1,1-dicyclopropyl-3-((2-((2,4-dichlorophenyl)carbamoyl)-2-((R)-4-isopropyl-2-oxoimidazolidin-1-yl)-2,3-dihydro-1H-inden-5-yl)amino)-3-oxopropan-2-yl)-4-methyl-1,2,5-oxadiazole-3-carboxamide] had an IC50 of 2540 nM.

Compound `CC1CN(CC2Cc3ccc(NC(=O)[C@@H](NC(=O)c4ccnn4C)C4CCCCC4)cc3O2)C(=O)N1` (stereo partly drawn) [Example 21, N-((1S)-1-cyclohexyl-2-((2-((4-methyl-2-oxoimidazolidin-1-yl)methyl)-2,3-dihydrobenzofuran-6-yl)amino)-2-oxoethyl)-1-methyl-1H-pyrazole-5-carboxamide] showed an IC50 of 2400 nM.

The compound `CNC(=O)C1(N2CC(C)NC2=O)CCc2cc(NC(=O)[C@@H](NC(=O)c3ccnn3C)C3CCCCC3)ccc21` (stereo partly drawn) [Example 8, N-((1S)-1-cyclohexyl-2-((1-(4-methyl-2-oxoimidazolidin-1-yl)-1-(methylcarbamoyl)-2,3-dihydro-1H-inden-5-yl)amino)-2-oxoethyl)-1-methyl-1H-pyrazole-5-carboxamide] showed an IC50 of over 10000 nM.

For the compound `CNC(=O)C1(N2CC3(CC3)CNC2=O)Cc2ccc(NC(=O)[C@@H](NC(=O)c3cnc4c(C#N)cccn34)C3CCCCC3)cc2C1` (stereo partly drawn) [Example 180, 8-cyano-N-((1S)-1-cyclohexyl-2-((2-(methylcarbamoyl)-2-(6-oxo-5,7-diazaspiro[2.5]octan-5-yl)-2,3-dihydro-1H-inden-5-yl)amino)-2-oxoethyl)imidazo[1,2-a]pyridine-3-carboxamide], the IC50 amounted to 3680 nM.

Take `CNC(=O)C1(N2C[C@@H](C(C)C)NC2=O)Cc2ccc(NC(=O)[C@@H](NC(=O)c3ccnn3C)C3CCC3)cc2C1` (stereo partly drawn) [Example 45, N-((1S)-1-cyclobutyl-2-((2-((R)-4-isopropyl-2-oxoimidazolidin-1-yl)-2-(methylcarbamoyl)-2,3-dihydro-1H-inden-5-yl)amino)-2-oxoethyl)-1-methyl-1H-pyrazole-5-carboxamide]: the IC50 worked out at 5130 nM.

In turn, `CNC(=O)C1(N2C[C@@H](C3CCCCC3)NC2=O)Cc2ccc(NC(=O)[C@@H](NC(=O)c3ccnn3C)C3CCCCC3)cc2C1` (stereo partly drawn) [Example 25, N-((1S)-1-cyclohexyl-2-((2-((R)-4-cyclohexyl-2-oxoimidazolidin-1-yl)-2-(methylcarbamoyl)-2,3-dihydro-1H-inden-5-yl)amino)-2-oxoethyl)-1-methyl-1H-pyrazole-5-carboxamide] returned an IC50 of 6300 nM.

Compound `CNC(=O)C1(N2CC(C)NC2=O)CCc2ccc(NC(=O)[C@@H](NC(=O)c3ccnn3C)C3CCCCC3)cc2C1` (stereo partly drawn) [Example 10, N-((1S)-1-cyclohexyl-2-((7-(4-methyl-2-oxoimidazolidin-1-yl)-7-(methylcarbamoyl)-5,6,7,8-tetrahydronaphthalen-2-yl)amino)-2-oxoethyl)-1-methyl-1H-pyrazole-5-carboxamide] gave an IC50 of 19000 nM.

Compound `CNC(=O)C1(N2CC(C)(Cc3ccccc3)CNC2=O)Cc2ccc(NC(=O)[C@@H](NC(=O)c3ccnn3C)C3CCCCC3)cc2C1` (stereo partly drawn) [Example 109, N-((1S)-2-((2-(5-benzyl-5-methyl-2-oxotetrahydropyrimidin-1(2H)-yl)-2-(methylcarbamoyl)-2,3-dihydro-1H-inden-5-yl)amino)-1-cyclohexyl-2-oxoethyl)-1-methyl-1H-pyrazole-5-carboxamide] returned an IC50 of 3450 nM.
